“And” between values parts separate entries of the source, which are not always exact repeats. Equal entries are not always repeated. Where two headings read alike, the source gives them in different places.
How the values were obtained:
human DIC (SLC25A10) = target: T1, human DIC (SLC25A10) (Homo sapiens, UniProt Q9UBX3); assay: Differential scanning fluorimetry (nanoDSF) thermal stability shift assay; format: binding; conditions: 1 mM nucleotide, pH 6.0, single repeats (source data Fig. 4A)
T1 construct: His8 (N, cleaved yes); Factor Xa protease cleavage site (N, cleaved yes); made in house; host or cells: Saccharomyces cerevisiae protease-deficient strain BJ2186
T1 sequence (Q9UBX3 1-287): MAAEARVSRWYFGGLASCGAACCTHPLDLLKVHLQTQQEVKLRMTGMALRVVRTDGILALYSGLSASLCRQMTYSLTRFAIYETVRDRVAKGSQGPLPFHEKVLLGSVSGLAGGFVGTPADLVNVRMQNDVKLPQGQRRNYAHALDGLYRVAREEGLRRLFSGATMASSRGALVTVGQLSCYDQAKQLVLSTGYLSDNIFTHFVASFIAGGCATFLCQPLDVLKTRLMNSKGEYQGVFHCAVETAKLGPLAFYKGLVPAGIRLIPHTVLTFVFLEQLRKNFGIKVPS

UCP1 [1] = target: T2, UCP1 (Homo sapiens, UniProt P25874); assay: Isothermal titration calorimetry of nucleotide binding; design: isotherm data point (enthalpy change per injection): unit not given here; conditions: for isotherm data point (enthalpy change per injection): representative isotherm, pH 6.0, 20 °C;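 as to all read-outs here: purified human UCP1 in cacodylate buffer with lauryl maltose neopentyl glycol and cardiolipin, titrated with nucleotides, isotherms fitted by one-site model yielding ΔH, Kd and stoichiometry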
T2 construct: His8 (N, cleaved yes); Factor Xa protease cleavage site (N, cleaved yes); made in house; host or cells: Saccharomyces cerevisiae strain W303.1B
T2 sequence (P25874 1-307): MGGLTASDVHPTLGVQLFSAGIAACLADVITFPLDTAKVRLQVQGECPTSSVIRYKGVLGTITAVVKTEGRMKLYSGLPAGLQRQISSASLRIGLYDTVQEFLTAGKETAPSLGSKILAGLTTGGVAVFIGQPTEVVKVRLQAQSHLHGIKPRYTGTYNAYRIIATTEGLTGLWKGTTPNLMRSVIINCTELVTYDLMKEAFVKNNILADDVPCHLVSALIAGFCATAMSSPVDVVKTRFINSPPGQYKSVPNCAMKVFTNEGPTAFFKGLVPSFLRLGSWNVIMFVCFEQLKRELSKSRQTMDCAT

UCP1 [2] = system: UCP1; design: method as in Heaton and Nicholls, 1977; conditions: ref Heaton and Nicholls, 1977; cited from earlier work
UCP1 [3] = target: T2, UCP1; assay: Differential scanning fluorimetry (nanoDSF) thermal stability shift assay; format: binding; conditions: for ΔTm at 1000 µM: read-out: thermal shift (ΔTm)
UCP1 [4] = system: UCP1; design: method as in Heaton and Nicholls, 1977; Divakaruni et al, 2012; conditions: whole mitochondria; ref Heaton and Nicholls, 1977; Divakaruni et al, 2012; cited from earlier work

## O=c1ccn([C@@H]2O[C@H](CO[P@@](=O)(O)O[P@@](=O)(O)OP(=O)(O)O)[C@@H](O)[C@H]2O)c(=O)[nH]1 (stereo in doubt) [UTP, uridine triphosphate]
Human DIC (SLC25A10)
  change in apparent melting temperature (ΔTm) of hDIC: 0.8 and 0.6
UCP1 [1]; ITC
  binding affinity to UCP1 (in words): intermediary affinities
UCP1 [1]; Molar ratio (Nucleotide/UCP) 0.120417
  isotherm data point (enthalpy change per injection): -22.5081
UCP1 [1]; Molar ratio (Nucleotide/UCP) 0.181226
  isotherm data point (enthalpy change per injection): -22.8003
UCP1 [1]; Molar ratio (Nucleotide/UCP) 0.242439
  isotherm data point (enthalpy change per injection): -21.4037
UCP1 [1]; Molar ratio (Nucleotide/UCP) 0.304059
  isotherm data point (enthalpy change per injection): -20.9646
UCP1 [1]; Molar ratio (Nucleotide/UCP) 0.366087
  isotherm data point (enthalpy change per injection): -21.4794
UCP1 [1]; Molar ratio (Nucleotide/UCP) 0.428528
  isotherm data point (enthalpy change per injection): -19.8691
UCP1 [1]; Molar ratio (Nucleotide/UCP) 0.491383
  isotherm data point (enthalpy change per injection): -17.9061
UCP1 [1]; Molar ratio (Nucleotide/UCP) 0.554656
  isotherm data point (enthalpy change per injection): -18.3443
UCP1 [1]; Molar ratio (Nucleotide/UCP) 0.618348
  isotherm data point (enthalpy change per injection): -16.1153
UCP1 [1]; Molar ratio (Nucleotide/UCP) 0.682464
  isotherm data point (enthalpy change per injection): -14.9337
UCP1 [1]; Molar ratio (Nucleotide/UCP) 0.747006
  isotherm data point (enthalpy change per injection): -12.0255
UCP1 [1]; Molar ratio (Nucleotide/UCP) 0.811976
  isotherm data point (enthalpy change per injection): -11.5031
UCP1 [1]; Molar ratio (Nucleotide/UCP) 0.877378
  isotherm data point (enthalpy change per injection): -10.3349
UCP1 [1]; Molar ratio (Nucleotide/UCP) 0.943214
  isotherm data point (enthalpy change per injection): -7.729
UCP1 [1]; Molar ratio (Nucleotide/UCP) 1.00949
  isotherm data point (enthalpy change per injection): -6.6657
UCP1 [1]; Molar ratio (Nucleotide/UCP) 1.0762
  isotherm data point (enthalpy change per injection): -5.447
UCP1 [1]; Molar ratio (Nucleotide/UCP) 1.14336
  isotherm data point (enthalpy change per injection): -3.759
UCP1 [1]; Molar ratio (Nucleotide/UCP) 1.21096
  isotherm data point (enthalpy change per injection): -3.295
UCP1 [1]; Molar ratio (Nucleotide/UCP) 1.27901
  isotherm data point (enthalpy change per injection): -1.9786
UCP1 [1]; Molar ratio (Nucleotide/UCP) 1.34751
  isotherm data point (enthalpy change per injection): -1.408
UCP1 [1]; Molar ratio (Nucleotide/UCP) 1.41647
  isotherm data point (enthalpy change per injection): -0.3952
UCP1 [1]; Molar ratio (Nucleotide/UCP) 1.48589
  isotherm data point (enthalpy change per injection): -0.4843
UCP1 [1]; Molar ratio (Nucleotide/UCP) 1.55577
  isotherm data point (enthalpy change per injection): -0.1953
UCP1 [1]; Molar ratio (Nucleotide/UCP) 1.62611
  isotherm data point (enthalpy change per injection): -0.1185
UCP1 [1]; Molar ratio (Nucleotide/UCP) 1.69692
  isotherm data point (enthalpy change per injection): 0.2895
UCP1 [1]; Molar ratio (Nucleotide/UCP) 1.76819
  isotherm data point (enthalpy change per injection): -0.544
UCP1 [1]; Molar ratio (Nucleotide/UCP) 1.83995
  isotherm data point (enthalpy change per injection): -0.2075
UCP1 [1]; Molar ratio (Nucleotide/UCP) 1.91217
  isotherm data point (enthalpy change per injection): -0.08977
UCP1 [1]; Molar ratio (Nucleotide/UCP) 1.98488
  isotherm data point (enthalpy change per injection): 0.02152
UCP1 [2]
  inhibition of proton conductance: significantly lower than that of purine nucleotides
UCP1 [3]; 1 mM nucleotide, pH 6.0, detergent-solubilised UCP1, mean of three biological repeats
  temperature shift (ΔTm): 15.3 °C
UCP1 [3]; 1 mM nucleotide, pH 6.0, range of Ca2+ or Mg2+ concentrations, until supramaximal concentrations
  effect of Ca2+ or Mg2+ on nucleotide binding to UCP1 (ΔTm): no difference for either cation
UCP1 [3]; pH 6, 1 mM nucleotide, pH 6.0, single repeats (source data Fig. 1D)
  ΔTm at 1000 µM: 15.7 °C
UCP1 [3]; pH 6.5, 1 mM nucleotide, pH 6.5, single repeats (source data Fig. 1D)
  ΔTm at 1000 µM: 11.1 °C
UCP1 [3]; pH 7, 1 mM nucleotide, pH 7.0, single repeats (source data Fig. 1D)
  ΔTm at 1000 µM: 6.3 °C
UCP1 [3]; pH 7.5, 1 mM nucleotide, pH 7.5, single repeats (source data Fig. 1D)
  ΔTm at 1000 µM: 1.4 °C
UCP1 [4]
  competition with GDP binding: could only weakly compete with GDP binding

— publication PMC12000319, “Proton conductance by human uncoupling protein 1 is inhibited by purine and pyrimidine nucleotides” (The EMBO Journal, 2025)
